Laboratory results as given in patent US8802164B2 (Oryza Oil & Fat Chemical Co., Ltd., priority 2003, dated 2014).
Values after ≈ are worked out from the molar mass of the structure shown.

How the values were obtained:
[1] = Hypotriglyceridemic action in blood of food-deprived mice; assay type: in vivo; details: 24-hour food-deprived mice, single oral dose, blood every hour; FIG. 9
Method: Then the effects on the blood triglyceride level are observed. The test method is herein described. First of all, take a blood sample from the veins of the 24-hour food-deprived mice (ddy. Male, 6-week-old). Half an hour later, orally apply each sample (10 mL./kg) suspended with the gum […] of 5 w/v % to the mice. Then, take a blood sample from the mice every one hour, and measure the blood triglyceride levels. Under the same condition, measure the blood triglyceride levels of the mice as a control, in which only gum […] orally administered.

[2] = Diet effect on weight gain and body fat accumulation, mice fed sample-mixed food for 13 days; assay type: in vivo; details: mice ddY, sample mixed in food; for effect on accumulation of epididymal fat and perinephric fat weight: 13 days, FIG. 2; for effect on the weight gain: free feeding 13 days, extract 0.5/1.0 wt %, caffeine 0.05/0.1 wt %, chlorogenic acid 0.15/0.3 wt %, FIG. 1
Method: The weight of each mouse was measured every other day during the feeding period, and the weight of the epididymal fat of each mouse on the last day of the feeding period. There was little difference in intake of the food among the control group (for only normal food given) and individual sample administration groups.

pancreatic lipase = biological target: T1, pancreatic lipase (Sus scrofa, UniProt P00591); assay: Pancreatic lipase inhibitory activity (in vitro); assay type: biochemical; details: swine pancreatic lipase 105.8 units/mL; FIG. 5
T1 construct: purchased SIGMA ADLRICH JAPAN K.K
T1 sequence (P00591 1-450): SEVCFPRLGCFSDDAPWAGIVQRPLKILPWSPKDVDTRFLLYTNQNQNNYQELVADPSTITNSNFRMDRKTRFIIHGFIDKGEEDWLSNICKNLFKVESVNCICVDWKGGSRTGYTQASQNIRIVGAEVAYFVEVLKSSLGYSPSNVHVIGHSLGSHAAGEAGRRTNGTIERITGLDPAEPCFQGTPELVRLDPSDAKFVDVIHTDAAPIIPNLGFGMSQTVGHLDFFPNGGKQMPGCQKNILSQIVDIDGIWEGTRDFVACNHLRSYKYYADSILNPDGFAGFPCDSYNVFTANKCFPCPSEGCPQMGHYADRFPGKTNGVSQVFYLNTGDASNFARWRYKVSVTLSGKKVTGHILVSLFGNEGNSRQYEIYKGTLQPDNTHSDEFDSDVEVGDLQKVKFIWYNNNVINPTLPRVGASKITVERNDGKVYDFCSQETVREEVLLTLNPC
Method: The lipase inhibitory activity was analyzed by using a pancreatic lipase (product of […] JAPAN K.K, final concentration 105.8 units/mL) derived from the swine and a lipase kit-s (Dainippon Pharmaceutical Co., Ltd.).

epididymal fat = assay: Lipolysis effect, glycerol release of epididymal fat (in vitro); assay type: cell-based, rats; details: rat epididymal fat, 37° C., three hours; extract at 1000 μg/mL; FIG. 8
Method: The test method is herein described. Remove the epididymal fat from male Wister rats, and incubate the fat in each sample solved in Medium 199 (medium culture) at a temperature of 37° C. for three hours. After completing the incubation, remove the fat and measure the amount of glycerol in the medium by using F-kit glycerol (product of Nippon Roche).

α-glucosidase = assay: α-Glucosidase inhibitory activity; assay type: biochemical, rat; details: for inhibitory activity of α-glucosidase (in words): rat small intestine enzyme, Chart 2; for IC50: rat small intestine acetone powder enzyme, 4-methylumbelliferyl-α-D-glucopyranoside 0.05 mM, 37° C., 30 minutes
Method: The test method is herein described. First of all, mix the acetone powder of the rat small intestine with the pH7.0. 0.1M phosphate buffer solution (product of […] JAPAN K.K), which is approx. 10 times as much as the volume of the acetone powder, and obtain the enzyme liquid from the centrifuged supernatant. Use the 0.2 mM 4-methyl umbel […]-gluco-pyranoside ([…] JAPAN K.K) as a substrate. After dissolving each sample in the DMSO, prepare the two-fold dilution series with the 4% DMSO containing phosphate buffer solution. The diluted solution (50 μL/well) and buffered substrate (25 μL/well) are mixed in a microplate, and after preheating it at 37° C. for 10 minutes, add the enzyme liquid (25 μL/well) to induce the reaction at 37° C. for 30 minutes (final concentration of enzyme: 1 mg protein mL, final concentration of substrate: 0.05 mM). Then, add the 0.2M Na2CO3 (100 μL/well) to stop the reaction. Measure the fluorescence intensity (excitation wavelength: 366 nm, determined wavelength: […]) using a microplate reader.

[3] = tested on: mouse adipose cell line (3T30L1); assay: Effect on fat accumulation and differentiation of 3T3-L1 adipocytes; assay type: cell-based; details: 3T3-L1 after differentiation induction, 6 days with sample; FIG. 6
Method: The test method is herein described. Cultivate the 3T30L1 adipose cell (5×10^4 cells/mL) in DMEM medium (high glucose) including fetal calf serum (10 wt %) for two days. Then, replace the medium with a different type of medium containing insulin ([…]), dexamethasone (0.25 μM) and isobutyl methyl xanthin (0.5 mM) for the differentiation induction. Two days later, replace the medium again with the different medium containing the samples and insulin (1 μg/mL), and cultivate them for six days replacing the medium every other day. After completing the cultivation, analyze the glycerol 3-phosphate dehydrogenase (GPDH) activity which is to be an indicator of the concentration of triglyceride in the cell and adipocyte differentiation.

[4] = Suppressive effect on fatty liver (hepatic triglyceride and total cholesterol); assay type: in vivo; details: mice, oral once a day for two weeks; FIG. 7
Text: The test method is herein described. Keep the mice (ddY, male, 5-week-old) in the laboratory for one week. Then, divide them into four groups and orally administer the samples suspended in the gum […] %) once a day for two weeks. On the final day of the test, remove the livers from the non-food-derived mice, and measure the amount of liver triglyceride and total cholesterol contained therein by using the test kit of Wako Pure Chemical Industries Ltd. of Japan.

[5] = Four-day weight gain test with existing dietetic materials (Chart 1); assay type: in vivo; details: mice, sample mixed in food
Method: Salacia extract can be obtained by extracting the salacia root with solvent. Evening primrose extract can also be obtained by extracting the evening primrose with solvent. As a test method, as shown in Chart 1, a four-day experiment was conducted with the mice (ddY, male, 5-week-old) to freely eat the food (CE-2, CLEA Japan, Inc.) mixed with the sample as indicated in Chart 1. The weight of each mouse was measured on the first day and on the final day of the experimental period.

SMILES	lowering effect on the blood-triglyceride [1]	effect on accumulation of epididymal fat and perinephric fat weight [2]	effect on the weight gain [2]	pancreatic lipase inhibitory activity (pancreatic lipase)	lipolysis effect (glycerol release) (epididymal fat)	inhibitory activity of α-glucosidase (in words) (α-glucosidase)	effect on the GPDH activity [3]	effect on the fat accumulation (triglyceride accumulation) [3]	effect on liver triglyceride [4]	liver total cholesterol value [4]	IC50 (α-glucosidase)	Weight (g) 4th day ([5]; 4th day, average ± standard error, n = 5)	Difference in the weight compared to the control ([5]; four days)	Weight increase ([5]; four days)
O=C(/C=C/c1ccc(O)c(O)c1)O[C@@H]1C[C@](O)(C(=O)O)C[C@@H](O)[C@H]1O [Chlorogenic acid, chlorogenic acid]	lowering effect on the blood-triglyceride identical to the effect of synephrine	slightly indicates a suppressive effect on the accumulation of the fat	do not have a sufficient suppressive effect on the weight gain	indicate a pancreatic lipase inhibitory activity	mild lipolysis effect	strong inhibitory activity of α-glucosidase	mild inhibitory effect on the GPDH activity	mild inhibitory effect on the fat accumulation	strong effect	almost the same as the value of the control group				
O=C(O)[C@]1(O)C[C@@H](O)[C@@H](O)[C@H](O)C1 [Quinic acid, quinic acid]						does not indicate the inhibitory activity					>1000 µg/mL			
Cn1c(=O)c2c(ncn2C)n(C)c1=O [Caffeine, caffeine]	strong lowering effect on the blood-triglyceride	slightly indicates a suppressive effect on the accumulation of the fat	do not have a sufficient suppressive effect on the weight gain	indicate a pancreatic lipase inhibitory activity		does not indicate the inhibitory activity	mild inhibitory effect on the GPDH activity	mild inhibitory effect on the fat accumulation	strong effect	almost the same as the value of the control group	>1000 µg/mL			
O=C(O)/C=C/c1ccc(O)c(O)c1 [Coffeic acid]						strong inhibitory activity of α-glucosidase					100 µg/mL (≈ 0.555 mM)			
c1cc2c(cc1[C@H]1OC[C@H]3[C@@H]1CO[C@@H]3c1ccc3c(c1)OCO3)OCO2 [Sesamine, sesamine]												30.91 ± 1.79 g	-0.83 g	3.55 g
